Experimental data reported in US20250188092A1, “RIFAMYCIN ANALOGS” (THE REGENTS OF THE UNIVERSITY OF MICHIGAN, priority 2021, published 2025).
Converted amounts (≈) assume the structure as drawn.

Experiments:
[1] = tested on: DPX2 cells; conditions: for DPX2 Viability @ 6.25 μM: 24 h; for DPX2 Viability @ 25 μM: human
[2] = tested on: VERO cells (ATCC CRL-81); assay: Vero cell toxicity; format: cell-based; conditions: Chlorocebus sabaeus, Vero; 72 hours exposure
Method: Cytotoxicity for a mammalian cell line was determined by exposing VERO cells (ATCC CRL-81) to serial dilutions of test compounds for 72 hours, followed by addition of resazurin and measurement of fluorescence after 4 hours incubation (Choules, et al., Antimnicrob. Agents Chemother. 2019, 63, e02204-02218).

[3] = tested on: MTB H37Rv ATCC 27294; assay: MIC, microplate Alamar Blue assay (MABA); format: cell-based, Mycobacterium tuberculosis; conditions: for MIC90 / MIC: Mycobacterium tuberculosis, MTB H37Rv ATCC 27294, microplate Alamar Blue assay, lowest concentration giving ≥90% reduction in fluorescence; for MIC: read-out: MIC90 MABA

Row | Structure (SMILES) | DPX2 Viability @ 6.25 μM [1] [%] | DPX2 Viability @ 25 μM [1] [%] | IC50 [2] [µM] | MIC90 MABA Rel to RMP [3] | MIC90 [3] [µM] | MIC [3] [µM]
1 | CCC(=O)N1CCN(c2cc(OCc3ccc(CN4CCOCC4)cc3)c3nc4c5c6c7c(C)c(O)c5c(=O)c(c-4oc3c2)NC(=O)/C(C)=C\C=C\[C@H](C)[C@H](O)[C@@H](C)[C@@H](O)[C@@H](C)[C@H](OC(C)=O)[C@H](C)[C@@H](OC)/C=C/O[C@@](C)(O7)C6=O)CC1 [Compound 17g, (7S,9E,11S,12R,13S,14R,15R,16R,17S,18S,19E,21Z)-2,15,17-Trihydroxy-11-methoxy-3,7,12,14,16,18,22-heptamethyl-32-({4-[(morpholin-4-yl)methyl]phenyl}methoxy)-6,23,37-trioxo-30-(4-propanoylpiperazin-1-yl)-8,27,38-trioxa-24,34-diazahexacyclo-[23.11.1.1^4,7.0^5,36.0^26,35.0^28,33]octatriaconta-1(36)2,4,9,19,21,25,28,30,32,34-undecaen-13-yl acetate] | 117 | 56 | > 10 | 0.4 | 0.012 | –
2 | CO[C@H]1/C=C/O[C@@]2(C)Oc3c(C)c(O)c4c(=O)c(c5oc6cc(N7CCN(C8CCN(C)CC8)CC7)cc(OCc7ccc(CN8CCOCC8)cc7)c6nc-5c4c3C2=O)NC(=O)/C(C)=C\C=C\[C@H](C)[C@H](O)[C@@H](C)[C@@H](O)[C@@H](C)[C@H](OC(C)=O)[C@@H]1C [Compound 17h, (7S,9E,11S,12R,13S,14R,15R,16R,17S,18S,19E,21Z)-2,15,17-trihydroxy-11-methoxy-3,7,12,14,16,18,22-heptamethyl-30-[4-(1-methylpiperidin-4-yl)piperazin-1-yl]-32-{[4-(morpholin-4-ylmethyl)phenyl]methoxy}-6,23,37-trioxo-8,27,38-trioxa-24,34-diazahexacyclo-[23.11.1.1^4,7.0^5,36.0^26,35.0^28,33]octatriaconta-1,3,5(36)9,19,21,25,28,30,32,34-undecaen-13-yl acetate] | 94 | 83 | > 10 | 1.3 | 0.035 | –
3 | CO[C@H]1/C=C/O[C@@]2(C)Oc3c(C)c(O)c4c(=O)c(c5oc6cc(N7CCN(CC(=O)O)CC7)cc(OCc7ccc(CN8CCOCC8)cc7)c6nc-5c4c3C2=O)NC(=O)/C(C)=C\C=C\[C@H](C)[C@H](O)[C@@H](C)[C@@H](O)[C@@H](C)[C@H](OC(C)=O)[C@@H]1C [Compound 17i] | 106 | 100 | > 10 | 1.0 | – | 0.026 (≈ 0.0294 µg/mL)
4 | CO[C@H]1/C=C/O[C@@]2(C)Oc3c(C)c(O)c4c(=O)c(c5oc6cc(N7CCS(=O)(=O)CC7)cc(OCc7ccc(CN8CCOCC8)cc7)c6nc-5c4c3C2=O)NC(=O)/C(C)=C\C=C\[C@H](C)[C@H](O)[C@@H](C)[C@@H](O)[C@@H](C)[C@H](OC(C)=O)[C@@H]1C [Compound 17j, (7S,9E,11S,12R,13S,14R,15R,16R,17S,18S,19E,21Z)-30-(1,1-dioxothiomorpholin-4-yl)-2,15,17-trihydroxy-11-methoxy-3,7,12,14,16,18,22-heptamethyl-32-([4-(morpholin-4-ylmethyl)phenyl]methoxy)-6,23,37-trioxo-8,27,38-trioxa-24,34-diazahexacyclo-[23.11.1.1^4,7.0^5,36.0^26,35.0^28,33]octatriaconta-1,3,5(36)9,19,21,25,28,30,32,34-undecaen-13-yl acetate] | 2 | 126 | > 10 | – | – | > 0.01
5 | CO[C@H]1/C=C/O[C@@]2(C)Oc3c(C)c(O)c4c(=O)c(c5oc6cc(N7CCC(C(=O)O)CC7)cc(OCc7ccc(CN8CCOCC8)cc7)c6nc-5c4c3C2=O)NC(=O)/C(C)=C\C=C\[C@H](C)[C@H](O)[C@@H](C)[C@@H](O)[C@@H](C)[C@H](OC(C)=O)[C@@H]1C [Compound 17k] | 131 | 34 | > 10 | 11 | – | 0.3 (≈ 0.335 µg/mL)
6 | CO[C@H]1/C=C/O[C@@]2(C)Oc3c(C)c(O)c4c(=O)c(c5oc6cc(N7CCN(C(=O)c8ccccc8)CC7)cc(OCc7ccc(CN8CCOCC8)cc7)c6nc-5c4c3C2=O)NC(=O)/C(C)=C\C=C\[C@H](C)[C@H](O)[C@@H](C)[C@@H](O)[C@@H](C)[C@H](OC(C)=O)[C@@H]1C [Compound 17m, (7S,9E,11S,12R,13S,14R,15R,16R,17S,18S,19E,21Z)-30-(4-benzoylpiperazin-1-yl)-2,15,17-trihydroxy-1-methoxy-3,7,12,14,16,18,22-heptamethyl-32-{[4-(morpholin-4-ylmethyl)phenyl]methoxy}-6,23,37-trioxo-8,27,38-trioxa-24,34-diazahexacyclo-[23.11.1.1^4,7.0^5,36.0^26,35.0^28,33]octatriaconta-1,3,5(36)9,19,21,25,28,30,32,34-undecaen-13-yl acetate] | 89 | 78 | > 10 | 0.34 | 0.017 | –
7 | CO[C@H]1/C=C/O[C@@]2(C)Oc3c(C)c(O)c4c(=O)c(c5oc6cc(N7CCN(C(=O)c8ccncc8)CC7)cc(OCc7ccc(CN8CCOCC8)cc7)c6nc-5c4c3C2=O)NC(=O)/C(C)=C\C=C\[C@H](C)[C@H](O)[C@@H](C)[C@@H](O)[C@@H](C)[C@H](OC(C)=O)[C@@H]1C [Compound 17n, 7S,9E,11S,12R,13S,14R,15R,16R,17S,18S,19E,21Z)-2,15,17-trihydroxy-11-methoxy-3,7,12,14,16,18,22-heptamethyl-32-{[4-(morpholin-4-ylmethyl)phenyl]methoxy}-6,23,37-trioxo-30-{4-[(pyridin-4-yl)carbonyl]piperazin-1-yl}-8,27,38-trioxa-24,34-diazahexacyclo[23.11.1.1^4,7.0^5,36.0^26,35.0^28,33]octatriaconta-1,3,5(36)9,19,21,25,28,30,32,34-undecaen-13-yl acetate] | 102 | 98 | > 10 | 1.5 | 0.073 | –
8 | CO[C@H]1/C=C/O[C@@]2(C)Oc3c(C)c(O)c4c(=O)c(c5oc6cc(N7CCOC(CN(C)C)C7)cc(OCc7ccc(CN8CCOCC8)cc7)c6nc-5c4c3C2=O)NC(=O)/C(C)=C\C=C\[C@H](C)[C@H](O)[C@@H](C)[C@@H](O)[C@@H](C)[C@H](OC(C)=O)[C@@H]1C (stereo partly drawn) [Compound 17o, (7S,9E,11S,12R,13S,14R,15R,16R,17S,18S,19E,21Z)-30-{2-[(dimethylamino)methyl]morpholin-4-yl}-2,15,17-trihydroxy-11-methoxy-3,7,12,14,16,18,22-heptamethyl-32-{[4-(morpholin-4-ylmethyl)phenyl]methoxy}-6,23,37-trioxo-8,27,38-trioxa-24,34-diazahexacyclo[23.11.1.1^4,7.0^5,36.0^26,35.0^28,33]octatriaconta-1,3,5(36)9,19,21,25,28,30,32,34-undecaen-13-yl acetate] | 96 | 42 | > 10 | 1.1 | 0.055 | –
9 | CO[C@H]1/C=C/O[C@@]2(C)Oc3c(C)c(O)c4c(=O)c(c5oc6cc(N7CCN(CC(C)C)CC7)cc(OCc7ccc(CN8CCN(C)CC8)cc7)c6nc-5c4c3C2=O)NC(=O)/C(C)=C\C=C\[C@H](C)[C@H](O)[C@@H](C)[C@@H](O)[C@@H](C)[C@H](OC(C)=O)[C@@H]1C [Compound 17p, (7S,9E,11S,12R,13S,14R,15R,16R,17S,18S,19E,21Z)-2,15,17-trihydroxy-11-methoxy-3,7,12,14,16,18,22-heptamethyl-32-({4-[(4-methylpiperazin-1-yl)methyl]phenyl}methoxy)-30-[4-(2-methylpropyl)piperazin-1-yl]-6,23,37-trioxo-8,27,38-trioxa-24,34-diazahexacyclo-[23.11.1.1^4,7.0^5,36.0^26,35.0^28,33]octatriaconta-1,3,5(36)9,19,21,25,28,30,32,34-undecaen-13-yl acetate] | 116 | 80 | > 10 | – | 0.0094 | –
10 | CO[C@H]1/C=C/O[C@@]2(C)Oc3c(C)c(O)c4c(=O)c(c5oc6cc(N7CCC(C(=O)O)CC7)cc(OCc7ccc(CN8CCN(C)CC8)cc7)c6nc-5c4c3C2=O)NC(=O)/C(C)=C\C=C\[C@H](C)[C@H](O)[C@@H](C)[C@@H](O)[C@@H](C)[C@H](OC(C)=O)[C@@H]1C [Compound 17q, 1-[(7S,9E,11S,12R,13S,14R,15R,16R,17S,18S,19E,21Z)-13-(acetyloxy)-2,15,17-trihydroxy-11-methoxy-3,7,12,14,16,18,22-heptamethyl-32-({4-[(4-methylpiperazin-1-yl)methyl]phenyl}methoxy)-6,23,37-trioxo-8,27,38-trioxa-24,34-diazahexacyclo-[23.11.1.1^4,7.0^5,36.0^26,35.0^28,33]-octatriaconta-1,3,5(36)9,19,21,25,28,30,32,34-undecaen-30-yl]piperidine-4-carboxylic acid] | 100 | 98 | > 10 | 16 | 0.415 (≈ 0.469 µg/mL) | –
